Measurements published in patent US20140172118A1, “Bioactive Compositions, Bioactive Eluting Devices and Methods of Use Thereof” (Cook Medical Technologies LLC, priority 2012, published 2014).

Test: Ex-vivo delivery of doxazosin mesylate from coated polyurethane tubing to ureter tissue
Format: in vitro ADME
Settings: 7 cm coated 6 Fr. polyurethane tubing in 9 cm porcine ureter, approximately 18 hours at 37° C., PBS pH=7.4; HPLC; compared with coating with no triacetin or DMSO; FIG. 6
Description: However, the increase in the amount bioactive delivered through a vessel wall may be characterized in an ex vivo assay in which the composition or implantable device is placed in a section of the appropriate vessel and incubated in a buffer solution for a fixed time. In one such assay, a device, for example, is placed in a section of porcine ureter, which is hydrated in a Phosphate Buffered Saline buffer. The ureter is incubated in a closed container for a fixed time, for example 24 hrs at 37 deg. C. […] The amount of bioactive present in the ureter and in the device is determined using, for example, an appropriate HPLC method. […]
A 7 cm section of each of the samples of tubing prepared as described in Example 1 is inserted into 9 cm of porcine ureter and incubated for approximately 18 hours at 37° C. in a screw capped glass vial hydrated with 0.25 ml of PBS (pH=7.4). […] The amount of doxazosin mesylate present in the tubing and in the ureter is determined as described in example 3.
Each of the samples from Example 2 is tested to determine the amount of doxazosin mesylate delivered to the ureter tissue. Doxazosin mesylate is extracted from each tube and ureter and the percentage that is delivered to each ureter is determined as follows. […] The amount of doxazosin mesylate in each of the ureter and the tubing is measured using HPLC.

SMILES | percentage of doxazosin mesylate present in the ureter (amount delivered to ureter tissue)
CC(=O)OCC(COC(C)=O)OC(C)=O [triacetin] | increase the amount of doxazosin mesylate delivered
C[S+](C)[O-] [DMSO, dimethyl sulfoxide] | increase the amount of doxazosin mesylate delivered
